Data taken from EP0637449A1, “Use of L-carnitine or acyl L-carnitines and valproate for treating seizure disorders” (Sigma-Tau Industrie Farmaceutiche Riunite S.p.A., priority 1993, dated 1995).

System: epileptic patients
Assay: Clinical trial: seizure frequency in epileptic patients on valproate with added L-carnitine
Type: in vivo
Conditions: 45 patients treated only with valproate for at least six months, then valproate and L-carnitine for at least one year; compared with the pre-treatment period (valproate only). Pre-carnitine vs greater than 12 months p<0.001; start-6 months vs greater than 12 months p=0.0001; 6-12 months vs greater than 12 months p=0.0001
Experimental: Fortyfive patients, 20 females and 25 males, mean age 24.5±8.48 years, were included in the study.
Some patients had more than one seizure type.
All of the patients had been treated only with valproate for at least six months.
Subsequently, they were treated with both valproate and L-carnitine for at least one year.
At intervals L-carnitine activity was assessed on some parameters including seizure frequency, in comparison with the pre-treatment period (valproate only, no L-carnitine). The intervals selected for all the controls were: between the start to 6 months of L-carnitine therapy, […], and L-carnitine therapy greater than 12 months.
Parameter assessment was not carried out at prefixed dates but within the 0-6, 6-12 and greater than 12 month periods in order to evaluate the seizure frequency over a sufficiently extended time period.

## C[N+](C)(C)C[C@H](O)CC(=O)[O-] [L-carnitine]
  seizure frequency: decreased progressively and steadily
